From patent US20250099514A1, “FISH REARING COMPOSITION, AND COMPOSITION FOR PREVENTING OR TREATING FISH DISEASES” (SUMITOMO CHEMICAL COMPANY, LIMITED, priority 2021, published 2025)
Non-standard residues stand in square brackets, D forms with d. Primed or numbered codes have the meaning given here. No end group written: not given here. Dhb′ = not defined here; Dha = C=C(N)C(=O)O

Tests used:
[1] = system: Lactococcus garvieae type I (TUMSAT-K9408 strain); assay: Antibacterial activity test: growth of Lactococcus garvieae type I after shaking culture with the test substance, colony formation on TH agar; format: cell-based; settings: Experiments 8 and 9, 1 to 10 μM
Method: (§1) Examination was performed on whether bacterial cell preparations of NITE BP-03198, NITE BP-03199, NITE BP-03200, NITE BP-03202, ATCC-11454, and NITE ABP-03481 inhibit the growth of Lactococcus garvieae type I (TUMSAT-K9408 strain) and type II (TUMSAT-LgN1 strain). With reference to FIG. 7, the experimental method will be described. To 270 μL of Todd-Hewitt (TH) medium 10, 30 μL of a lactic acid bacterial cell preparation 11 was added. Furthermore, 3 μL of a bacterial solution 12 containing Lactococcus garvieae (approximately 10^5 cfu/mL) was added, and shaking culture was performed at 25° C. for 8 hours. To TH agar medium 14, 5 μL of a bacterial culture solution 13 was dropped, culture was performed at 25° C. for 12 hours, and whether a colony 15 of Lactococcus garvieae formed was observed. If the number of colonies observed was five or less, it was determined that there was antibacterial activity. Lactic acid bacterial cell preparations were prepared in the following manner. For NITE BP-03198, NITE BP-03199, NITE BP-03200, and NITE BP-03202, first, the lactic acid bacteria were each cultured in MRS Broth at a temperature of 30° C., giving culture solutions. Thereafter, the culture solutions were centrifuged to precipitate bacterial cells, and the culture supernatants were collected. […]

[2] = system: Lactococcus garvieae type II (TUMSAT-LgN1 strain); assay: Antibacterial activity test: growth of Lactococcus garvieae type II after shaking culture with the test substance, colony formation on TH agar; format: cell-based; settings: Experiments 8 and 9, 1 to 10 μM
Method: as §1

[3] = system: Lactococcus garvieae type I (TUMSAT-K9408 strain); assay: Antibacterial activity test: growth of Lactococcus garvieae type I after shaking culture with the test substance, colony formation on TH agar; format: cell-based; parameters: key: +: presence of antibacterial activity; −: absence of antibacterial activity; settings: 25° C., 8 hours
Method: (§2) Examination was performed on whether bacterial cell preparations of NITE BP-03198, NITE BP-03199, NITE BP-03200, NITE BP-03202, ATCC-11454, and NITE ABP-03481 inhibit the growth of Lactococcus garvieae type I (TUMSAT-K9408 strain) and type II (TUMSAT-LgN1 strain). With reference to FIG. 7, the experimental method will be described. To 270 μL of Todd-Hewitt (TH) medium 10, 30 μL of a lactic acid bacterial cell preparation 11 was added. Furthermore, 3 μL of a bacterial solution 12 containing Lactococcus garvieae (approximately 10^5 cfu/mL) was added, and shaking culture was performed at 25° C. for 8 hours. To TH agar medium 14, 5 μL of a bacterial culture solution 13 was dropped, culture was performed at 25° C. for 12 hours, and whether a colony 15 of Lactococcus garvieae formed was observed. If the number of colonies observed was five or less, it was determined that there was antibacterial activity. Lactic acid bacterial cell preparations were prepared in the following manner. For NITE BP-03198, NITE BP-03199, NITE BP-03200, and NITE BP-03202, first, the lactic acid bacteria were each cultured in MRS Broth at a temperature of 30° C., giving culture solutions. Thereafter, the culture solutions were centrifuged to precipitate bacterial cells, and the culture supernatants were collected. The culture supernatants collected were 10-fold concentrated by using an ultrafiltration membrane (Merck Millipore, AMICON ULTRA-15 3 KDa cutoff), giving bacterial cell preparations. For ATCC-11454 and NITE ABP-03481, bacterial cell preparations were obtained in the same manner as described for NITE BP-03198 and others. As a negative control, medium for lactic acid bacteria (MRS Broth) was added to a bacterial solution containing Lactococcus garvieae.
(§3) Examination was performed on whether synthetic plantaricins inhibit the growth of Lactococcus garvieae type I (TUMSAT-K9408 strain) and type II (TUMSAT-LgN1 strain). The method in Experiment 8 is the same as that in Experiment 7 except that synthetic plantaricins were used in place of the lactic acid bacterial cell preparations. Each synthetic plantaricin was synthesized by using common techniques of organic synthesis. A solution containing plantaricin A (plantaricin A), a solution obtained by mixing plantaricin E and plantaricin F at a ratio (mole ratio) of 1:1 (plantaricin EF), a solution obtained by mixing plantaricin J and plantaricin K at a ratio (mole ratio) of 1:1 (plantaricin JK), or a solution obtained by mixing plantaricin NC8α and plantaricin NC8β at a ratio (mole ratio) of 1:1 (plantaricin NC8αβ) was added to a bacterial solution containing Lactococcus garvieae, and shaking culture was performed at 25° C. for 8 hours. The bacterial solutions containing Lactococcus garvieae after culture were each dropped on agar medium, and whether a colony of Lactococcus garvieae formed was observed.
Examination was performed on whether a purified product of nisin A inhibits the growth of Lactococcus garvieae type I (TUMSAT-K9408 strain) and type II (TUMSAT-LgN1 strain). The method in Experiment 9 is the same as those in Experiments 7 and 8 except that a purified product of nisin A was used in place of the lactic acid bacterial cell preparations or the synthetic plantaricins. A purified product of nisin A (manufactured by Sigma-Aldrich Co. LLC) was dissolved in water and removed of insoluble components by centrifugation, giving a nisin A solution. […]

[4] = system: Lactococcus garvieae type II (TUMSAT-LgN1 strain); assay: Antibacterial activity test: growth of Lactococcus garvieae type II after shaking culture with the test substance, colony formation on TH agar; format: cell-based; parameters: key: +: presence of antibacterial activity; −: absence of antibacterial activity; settings: 25° C., 8 hours
Method: as §2
as §3, with “The bacterial solutions containing Lactococcus garvieae after culture were each dropped on agar medium, and whether a colony of Lactococcus garvieae formed was observed.” left out

[5] = system: Lactococcus garvieae 03/8460 strain; settings: NPL 3; cited from earlier work
[6] = system: Lactococcus garvieae CLG4 strain; settings: NPL 4; cited from earlier work
[7] = system: Lactococcus garvieae type I (TUMSAT-K9408 strain); assay: Antibacterial activity test: growth of Lactococcus garvieae type I after shaking culture with the test substance, colony formation on TH agar; format: cell-based; parameters: key: +: presence of antibacterial activity,; −: absence of antibacterial activity; settings: synthetic plantaricin 10 μM; 25° C., 8 hours
Method: as §1

[8] = system: Lactococcus garvieae type II (TUMSAT-LgN1 strain); assay: Antibacterial activity test: growth of Lactococcus garvieae type II after shaking culture with the test substance, colony formation on TH agar; format: cell-based; parameters: key: +: presence of antibacterial activity,; −: absence of antibacterial activity; settings: 25° C., 8 hours
Method: as §1

Substance | Inhibition of the growth of Lactococcus garvieae type I (in words) [1] | Inhibition of the growth of Lactococcus garvieae type II (in words) [2] | Antibacterial activity, Lactococcus garvieae TUMSAT-K9408 ([3]; nisin A solution 1 μM) | Antibacterial activity, Lactococcus garvieae TUMSAT-K9408 ([3]; nisin A solution 3 μM) | Antibacterial activity, Lactococcus garvieae TUMSAT-K9408 ([3]; nisin A solution 10 μM) | Antibacterial activity, Lactococcus garvieae TUMSAT-LgN1 ([4]; nisin A solution 1 μM) | Antibacterial activity, Lactococcus garvieae TUMSAT-LgN1 ([4]; nisin A solution 3 μM) | Antibacterial activity, Lactococcus garvieae TUMSAT-LgN1 ([4]; nisin A solution 10 μM) | Growth of the Lactococcus garvieae 03/8460 strain [5] | Growth of the Lactococcus garvieae CLG4 strain [6] | Antibacterial activity, Lactococcus garvieae TUMSAT-K9408 ([3]; synthetic plantaricin 1 μM) | Antibacterial activity, Lactococcus garvieae TUMSAT-K9408 ([3]; synthetic plantaricin 3 μM) | Antibacterial activity, Lactococcus garvieae TUMSAT-LgN1 ([4]; synthetic plantaricin 1 μM) | Antibacterial activity, Lactococcus garvieae TUMSAT-K9408 [7] | Antibacterial activity, Lactococcus garvieae TUMSAT-LgN1 ([8]; synthetic plantaricin 3 μM) | Antibacterial activity, Lactococcus garvieae TUMSAT-LgN1 ([8]; synthetic plantaricin 10 μM)
nisin A (I[Dhb′]SI[Dha]LCTPGCKTGALMGCNMKTATCHCSIHV[Dha]K; thioether (positions not given here); not fully specified (residues 3, 8, 13, 23, 25, bridges); also: lanthionine thioether rings and dehydro residues not placed; UniProt P13068 24-57, looked up) [purified product of nisin A (manufactured by Sigma-Aldrich Co. LLC) dissolved in water] | inhibited the growth | inhibited the growth | + | + | + | + | + | + |  |  |  |  |  |  |  | 
nisin Z (I[Dhb′]SI[Dha]LCTPGCKTGALMGCNMKTATCNCSIHV[Dha]K; thioether (positions not given here); not fully specified (residues 3, 8, 13, 23, 25, bridges); also: lanthionine thioether rings and dehydro residues not placed; UniProt P29559 24-57, looked up) [antibacterial peptide produced by Lactococcus lactis strains TW34 and WA2-67 (literature)] |  |  |  |  |  |  |  |  | inhibited the growth | inhibited the growth |  |  |  |  |  | 
plantaricin A | inhibited the growth | inhibited the growth |  |  |  |  |  |  |  |  | − | − | − | + | + | +
